Source: article PMC5302078 (Journal of Biomolecular Screening, 2016)

Target: T1, breast cancer resistance protein (BCRP) (Homo sapiens, UniProt Q9UNQ0)
T1 sequence (Q9UNQ0 1-655): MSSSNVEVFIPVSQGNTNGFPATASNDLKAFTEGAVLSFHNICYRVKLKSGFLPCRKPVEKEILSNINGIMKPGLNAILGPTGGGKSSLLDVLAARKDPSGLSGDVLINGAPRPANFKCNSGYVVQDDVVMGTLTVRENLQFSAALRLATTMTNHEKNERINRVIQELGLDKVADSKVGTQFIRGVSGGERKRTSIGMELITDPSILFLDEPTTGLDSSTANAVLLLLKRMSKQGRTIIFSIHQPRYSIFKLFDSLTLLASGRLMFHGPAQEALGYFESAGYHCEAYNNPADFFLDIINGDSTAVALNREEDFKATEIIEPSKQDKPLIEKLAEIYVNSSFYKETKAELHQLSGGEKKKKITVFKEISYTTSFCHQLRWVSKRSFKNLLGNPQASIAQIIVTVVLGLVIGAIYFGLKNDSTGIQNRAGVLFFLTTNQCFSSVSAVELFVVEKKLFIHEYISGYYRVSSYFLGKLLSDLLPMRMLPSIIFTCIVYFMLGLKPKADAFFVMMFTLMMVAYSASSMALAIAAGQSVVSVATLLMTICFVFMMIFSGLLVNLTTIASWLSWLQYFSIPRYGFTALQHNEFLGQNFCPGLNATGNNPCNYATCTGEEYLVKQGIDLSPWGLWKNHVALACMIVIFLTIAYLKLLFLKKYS
Test: mitoxantrone accumulation in BCRP-overexpressing PLB985 cells, flow cytometry
Type: cell-based

| SMILES | IC50 [nM] |
| --- | --- |
| O=C(Nc1c(Cl)cncc1Cl)c1ccc(OC(F)F)c(OCC2CC2)c1 [roflumilast] | 900 ± 200 |
| COc1cc(N)c(Cl)cc1C(=O)NC1CCN(CCCOc2ccc(F)cc2)CC1OC (centres unmarked) [cisapride] | 400 ± 100 |
